Reference: ChEMBL document CHEMBL1795250, “Synthesis and base-pairing properties of C-nucleotides having 1-substituted 1H-1,2,3-triazoles” (Bioorg Med Chem Lett, 2009)

Key:
Format in all cases: nucleic-acid assay
Nucleic Acid [1] = assay: Stabilization of 5'-AGAGAGAGAGAAAAA-3' ssDNA sequence assessed as melting temperature at pH7 using 100 mM NaCl
Nucleic Acid [2] = assay: Stabilization of 5'-AGAGAGATAGAAAAA-3' ssDNA sequence assessed as melting temperature at pH7 using 100 mM NaCl
Nucleic Acid [3] = assay: Stabilization of 5'-AGAGAGAAAGAAAAA-3' ssDNA sequence assessed as melting temperature at pH7 using 100 mM NaCl
Nucleic Acid [4] = assay: Stabilization of 5'-AGAGAGACAGAAAAA-3' ssDNA sequence assessed as melting temperature at pH7 using 100 mM NaCl

| Tm (Nucleic Acid [1]) [°C] | Tm (Nucleic Acid [2]) [°C] | Tm (Nucleic Acid [3]) [°C] | Tm (Nucleic Acid [4]) [°C] | SMILES |
| --- | --- | --- | --- | --- |
| 42 | 38 | 39 | 36 | Cc1ccc(-n2cc([C@H]3C[C@H](OP(=O)(O)OC[C@H]4O[C@@H](n5cc(C)c(=O)[nH]c5=O)C[C@@H]4OP(=O)(O)OC[C@H]4O[C@@H](n5cc(C)c(N)nc5=O)C[C@@H]4OP(=O)(O)OC[C@H]4O[C@@H](n5cc(C)c(=O)[nH]c5=O)C[C@@H]4OP(=O)(O)OC[C@H]4O[C@@H](n5cc(C)c(N)nc5=O)C[C@@H]4OP(=O)(O)OC[C@H]4O[C@@H](n5cc(C)c(=O)[nH]c5=O)C[C@@H]4OP(=O)(O)OC[C@H]4O[C@@H](n5cc(C)c(N)nc5=O)C[C@@H]4OP(=O)(O)OC[C@H]4O[C@@H](n5cc(C)c(=O)[nH]c5=O)C[C@@H]4O)[C@@H](COP(=O)(O)O[C@H]4C[C@H](n5cc(C)c(=O)[nH]c5=O)O[C@@H]4COP(=O)(O)O[C@H]4C[C@H](n5cc(C)c(N)nc5=O)O[C@@H]4COP(=O)(O)O[C@H]4C[C@H](n5cc(C)c(=O)[nH]c5=O)O[C@@H]4COP(=O)(O)O[C@H]4C[C@H](n5cc(C)c(=O)[nH]c5=O)O[C@@H]4COP(=O)(O)O[C@H]4C[C@H](n5cc(C)c(=O)[nH]c5=O)O[C@@H]4COP(=O)(O)O[C@H]4C[C@H](n5cc(C)c(=O)[nH]c5=O)O[C@@H]4COP(=O)(O)O[C@H]4C[C@H](n5cc(C)c(=O)[nH]c5=O)O[C@@H]4CO)O3)nn2)cc1 |
| 38 | 33 | 33 | 33 | Cc1cn([C@H]2C[C@H](OP(=O)(O)OC[C@H]3O[C@@H](n4cc(C)c(=O)[nH]c4=O)C[C@@H]3OP(=O)(O)OC[C@H]3O[C@@H](n4cc(C)c(N)nc4=O)C[C@@H]3OP(=O)(O)OC[C@H]3O[C@@H](n4cc(C)c(=O)[nH]c4=O)C[C@@H]3OP(=O)(O)OC[C@H]3O[C@@H](n4cc(C)c(N)nc4=O)C[C@@H]3OP(=O)(O)OC[C@H]3O[C@@H](n4cc(C)c(=O)[nH]c4=O)C[C@@H]3O)[C@@H](COP(=O)(O)O[C@H]3C[C@H](n4cc(C)c(=O)[nH]c4=O)O[C@@H]3COP(=O)(O)O[C@H]3C[C@H](c4cn(-c5ccc(C(=O)O)cc5)nn4)O[C@@H]3COP(=O)(O)O[C@H]3C[C@H](n4cc(C)c(=O)[nH]c4=O)O[C@@H]3COP(=O)(O)O[C@H]3C[C@H](n4cc(C)c(N)nc4=O)O[C@@H]3COP(=O)(O)O[C@H]3C[C@H](n4cc(C)c(=O)[nH]c4=O)O[C@@H]3COP(=O)(O)O[C@H]3C[C@H](n4cc(C)c(=O)[nH]c4=O)O[C@@H]3COP(=O)(O)O[C@H]3C[C@H](n4cc(C)c(=O)[nH]c4=O)O[C@@H]3COP(=O)(O)O[C@H]3C[C@H](n4cc(C)c(=O)[nH]c4=O)O[C@@H]3COP(=O)(O)O[C@H]3C[C@H](n4cc(C)c(=O)[nH]c4=O)O[C@@H]3CO)O2)c(=O)nc1N |
